{"source": "patent US5169838A", "about": "“Benzopyranone-β-D-thioxylosides and their use in therapy” (Fournier Industrie et Sante, priority 1989, dated 1992)"}
{"assay": "venous thrombosis (venous stasis under hypercoagulation with activated factor X, Wessler technique)", "format": "in vivo, male Wistar rats", "conditions": "po, administered orally, rat, thrombosis induced 4 hours after treatment, thrombus weighed", "description": "The study is performed on unfasted male Wistar rats weighing 250 to 280 g, divided up into groups of 10 animals each. The test products are administered orally as a suspension in PEG 400. A thrombosis is induced 4 hours after this treatment and the thrombus formed is removed and weighed.", "units": {"inhibition in vivo at 3 mg/kg": "%"}}
{"smiles": "Cc1c(Cl)c(=O)oc2cc(O[C@@H]3SC[C@@H](O)[C@H](O)[C@H]3O)ccc12", "note": "[Example 17, 3-chloro-4-methyl-2-oxo-2H-1-benzopyran-7-yl 5-thio-β-D-xylopyranoside]", "inhibition in vivo at 3 mg/kg": 64}
{"smiles": "CC(=O)O[C@@H]1[C@@H](OC(C)=O)[C@H](OC(C)=O)CS[C@H]1Oc1ccc2c(C)c(Cl)c(=O)oc2c1", "note": "[Example 17a, 3-chloro-4-methyl-2-oxo-2H-1-benzopyran-7-yl 2,3,4-tri-O-acetyl-5-thio-β-D-xylopyranoside]", "inhibition in vivo at 3 mg/kg": 67}
{"smiles": "Cc1c(-c2ccccc2)c(=O)oc2cc(O[C@@H]3SC[C@@H](O)[C@H](O)[C@H]3O)ccc12", "note": "[Example 18, 4-methyl-2-oxo-3-phenyl-2H-1-benzopyran-7-yl 5-thio-β-D-xylopyranoside]", "inhibition in vivo at 3 mg/kg": 43}
{"smiles": "CC(=O)O[C@@H]1[C@@H](OC(C)=O)[C@H](OC(C)=O)CS[C@H]1Oc1ccc2c(C)c(-c3ccccc3)c(=O)oc2c1", "note": "[Example 18a, 4-methyl-2-oxo-3-phenyl-2H-1-benzopyran-7-yl 2,3,4-tri-O-acetyl-5-thio-β-D-xylopyranoside]", "inhibition in vivo at 3 mg/kg": 20}
{"smiles": "CC(C)c1cc(=O)oc2cc(O[C@@H]3SC[C@@H](O)[C@H](O)[C@H]3O)ccc12", "note": "[Example 19, 4-(1-methylethyl)-2-oxo-2H-1-benzopyran-7-yl 5-thio-β-D-xylopyranoside]", "inhibition in vivo at 3 mg/kg": 36}
{"smiles": "Cc1cc(=O)c2ccc(O[C@@H]3SC[C@@H](O)[C@H](O)[C@H]3O)cc2o1", "note": "[Example 20, 2-methyl-4-oxo-4H-1-benzopyran-7-yl 5-thio-β-D-xylopyranoside]", "inhibition in vivo at 3 mg/kg": 53}
{"smiles": "CC(=O)O[C@@H]1[C@@H](OC(C)=O)[C@H](OC(C)=O)CS[C@H]1Oc1ccc2c(=O)cc(C)oc2c1", "note": "[Example 20a, 2-methyl-4-oxo-4H-1-benzopyran-7-yl 2,3,4-tri-O-acetyl-5-thio-β-D-xylopyranoside]", "inhibition in vivo at 3 mg/kg": 20}
{"smiles": "CCc1cc(=O)c2ccc(O[C@@H]3SC[C@@H](O)[C@H](O)[C@H]3O)cc2o1", "note": "[Example 21, 2-ethyl-4-oxo-4H-1-benzopyran-7-yl 5-thio-β-D-xylopyranoside]", "inhibition in vivo at 3 mg/kg": 70}
{"smiles": "CCc1cc(=O)c2ccc(O[C@@H]3SC[C@@H](OC(C)=O)[C@H](OC(C)=O)[C@H]3OC(C)=O)cc2o1", "note": "[Example 21a, 2-ethyl-4-oxo-4H-1-benzopyran-7-yl 2,3,4-tri-O-acetyl-5-thio-β-D-xylopyranoside]", "inhibition in vivo at 3 mg/kg": 42}
{"smiles": "Cc1oc2cc(O[C@@H]3SC[C@@H](O)[C@H](O)[C@H]3O)ccc2c(=O)c1C", "note": "[Example 22, 2,3-dimethyl-4-oxo-4H-1-benzopyran-7-yl 5-thio-β-D-xylopyranoside]", "inhibition in vivo at 3 mg/kg": 36}
{"smiles": "CC(=O)O[C@@H]1[C@@H](OC(C)=O)[C@H](OC(C)=O)CS[C@H]1Oc1ccc2c(=O)c(C)c(C)oc2c1", "note": "[Example 22a, 2,3-dimethyl-4-oxo-4H-1-benzopyran-7-yl 2,3,4-tri-O-acetyl-5-thio-β-D-xylopyranoside]", "inhibition in vivo at 3 mg/kg": 66}
{"smiles": "Cc1cc(=O)c2ccc(S[C@@H]3SC[C@@H](O)[C@H](O)[C@H]3O)cc2o1", "note": "[Example 23, 2-methyl-4-oxo-4H-1-benzopyran-7-yl 1,5-dithio-β-D-xylopyranoside]", "inhibition in vivo at 3 mg/kg": 26}
{"smiles": "Cc1cc(=O)c2cc(O[C@@H]3SC[C@@H](O)[C@H](O)[C@H]3O)ccc2o1", "note": "[Example 24, 2-methyl-4-oxo-4H-1-benzopyran-6-yl 5-thio-β-D-xylopyranoside]", "inhibition in vivo at 3 mg/kg": 36}
{"smiles": "O=c1cc(-c2ccccc2)oc2cc(O[C@@H]3SC[C@@H](O)[C@H](O)[C@H]3O)ccc12", "note": "[Example 25, 4-oxo-2-phenyl-4H-1-benzopyran-7-yl 5-thio-β-D-xylopyranoside]", "inhibition in vivo at 3 mg/kg": 28}
{"smiles": "Cc1oc2cc(S[C@@H]3SC[C@@H](O)[C@H](O)[C@H]3O)ccc2c(=O)c1C", "note": "[Example 26, 2,3-dimethyl-4-oxo-4H-1-benzopyran-7-yl 1,5-dithio-β-D-xylopyranoside]", "inhibition in vivo at 3 mg/kg": 27}
{"smiles": "CCc1cc(=O)c2ccc(S[C@@H]3SC[C@@H](O)[C@H](O)[C@H]3O)cc2o1", "note": "[Example 27, 2-ethyl-4-oxo-4H-1-benzopyran-7-yl 1,5-dithio-β-D-xylopyranoside]", "inhibition in vivo at 3 mg/kg": 26}
{"smiles": "CCc1cc(=O)c2ccc(S[C@@H]3SC[C@@H](OC(C)=O)[C@H](OC(C)=O)[C@H]3OC(C)=O)cc2o1", "note": "[Example 27a, 2-ethyl-4-oxo-4H-1-benzopyran-7-yl 2,3,4-tri-O-acetyl-1,5-dithio-β-D-xylopyranoside]", "inhibition in vivo at 3 mg/kg": 23}
{"smiles": "Cc1oc2cc(O[C@@H]3SC[C@@H](O)[C@H](O)[C@H]3O)ccc2c(=O)c1Br", "note": "[Example 28, 3-bromo-2-methyl-4-oxo-4H-1-benzopyran-7-yl 5-thio-β-D-xylopyranoside]", "inhibition in vivo at 3 mg/kg": 49}
{"smiles": "CC(=O)O[C@@H]1[C@@H](OC(C)=O)[C@H](OC(C)=O)CS[C@H]1Oc1ccc2c(=O)c(Br)c(C)oc2c1", "note": "[Example 28a, 3-bromo-2-methyl-4-oxo-4H-1-benzopyran-7-yl 2,3,4-tri-O-acetyl-5-thio-β-D-xylopyranoside]", "inhibition in vivo at 3 mg/kg": 25}
